How the values were obtained:
[1] = target: T1, cofactor-independent phosphoglycerate mutase (iPGAM) (Brugia malayi, UniProt Q4VWF8); experiment: coupled enzyme assay (NADH absorbance at […] nm), luminescence (Kinase-Glo) confirmation; type: biochemical
T1 construct: gene ipgm-1; Full-length, histidine-tagged
T1 sequence (Q4VWF8 1-515): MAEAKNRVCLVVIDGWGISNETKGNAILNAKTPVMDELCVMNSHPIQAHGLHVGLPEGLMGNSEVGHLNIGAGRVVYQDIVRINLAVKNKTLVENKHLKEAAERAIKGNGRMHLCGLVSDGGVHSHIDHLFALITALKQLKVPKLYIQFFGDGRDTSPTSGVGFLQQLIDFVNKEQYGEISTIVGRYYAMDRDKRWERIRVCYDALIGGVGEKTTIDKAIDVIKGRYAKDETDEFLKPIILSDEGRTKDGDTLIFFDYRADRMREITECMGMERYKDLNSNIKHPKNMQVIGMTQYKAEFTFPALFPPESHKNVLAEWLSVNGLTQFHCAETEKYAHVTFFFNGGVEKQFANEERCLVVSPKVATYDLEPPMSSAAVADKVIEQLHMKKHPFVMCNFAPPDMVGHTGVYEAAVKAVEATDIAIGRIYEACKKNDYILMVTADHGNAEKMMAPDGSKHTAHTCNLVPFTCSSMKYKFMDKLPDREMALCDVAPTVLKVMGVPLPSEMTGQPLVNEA

[2] = target: T2, cofactor-independent phosphoglycerate mutase (iPGAM) (Caenorhabditis elegans, UniProt G5EFZ1); experiment: HTS coupled enzyme assay at […] ([…] inhibition), re-tested and reconfirmed; type: biochemical
T2 construct: gene ipgm-1; Full-length, histidine-tagged
T2 sequence (G5EFZ1 1-539): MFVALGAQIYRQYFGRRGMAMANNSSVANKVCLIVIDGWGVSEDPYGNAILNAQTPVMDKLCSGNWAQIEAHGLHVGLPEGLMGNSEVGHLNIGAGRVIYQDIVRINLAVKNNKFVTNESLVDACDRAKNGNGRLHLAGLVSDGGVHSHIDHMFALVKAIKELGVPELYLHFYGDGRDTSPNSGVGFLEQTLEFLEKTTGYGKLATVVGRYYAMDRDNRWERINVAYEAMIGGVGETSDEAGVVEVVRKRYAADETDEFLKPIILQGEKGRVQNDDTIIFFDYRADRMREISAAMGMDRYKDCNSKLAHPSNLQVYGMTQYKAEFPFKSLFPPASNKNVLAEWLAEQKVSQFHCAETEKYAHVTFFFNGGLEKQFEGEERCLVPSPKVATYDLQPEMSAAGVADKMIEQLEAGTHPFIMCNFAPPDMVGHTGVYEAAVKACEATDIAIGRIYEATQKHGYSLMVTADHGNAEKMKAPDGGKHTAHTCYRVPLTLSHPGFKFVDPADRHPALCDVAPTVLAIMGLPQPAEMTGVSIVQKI

[3] = target: T1, cofactor-independent phosphoglycerate mutase (iPGAM); experiment: coupled enzyme assay (NADH absorbance at […] nm), dose-response; luminescence (Kinase-Glo) confirmation; type: biochemical
[4] = substrate: O=C(O)[C@H](O)COP(=O)(O)O; experiment: enzyme kinetics (Km), coupled assay; type: biochemical, Brugia malayi; details: Mg2+
[5] = substrate: O=C(O)[C@H](O)COP(=O)(O)O; experiment: enzyme kinetics (Km), coupled assay; type: biochemical, Caenorhabditis elegans; details: Mg2+

CCc1cc2c[n+](C3CCCCC3)sc2s1 [Genz-2]
IC50 [1]: > 10 µM
inhibition at 10 µM [2]: > 40%

Nc1cc2cccnc2c2ncccc12 [NCDS-1, 5-amino-1,10-phenanthroline]
IC50 [3]: > 10 µM

B1: cofactor-independent phosphoglycerate mutase (iPGAM) (Brugia malayi) (protein)
chain: T1 sequence (Q4VWF8 1-515)
notes: Full-length, histidine-tagged
Km [4]: 370 µM

B2: cofactor-independent phosphoglycerate mutase (iPGAM) (Caenorhabditis elegans) (protein)
chain: T2 sequence (G5EFZ1 1-539)
notes: Full-length, histidine-tagged
Km [5]: 380 µM
